Source: patent publication US20070166696A1, “Adenovirus-transfected primary cells and methods of pathway mapping” (SANOFI-AVENTIS U.S. LLC, priority 2003, published 2007)

Experiments:
Format in all cases: cell-based, human
ISRE cis-element = experiment: Adenovirus luciferase reporter in iDCs; details: LPS 1 μg/ml, 2, 4, 8, 24 hours time course
Experimental: (§1) After a certain amount of time post stimulation, the cells are collected and luciferase activity is measured. Luciferase activity can be measured by an enzyme assay using a photon generating substrate and detecting photons by luminometer.
(§2) Similar experiments were performed for in vitro differentiated dendritic cells (“iDCs”). In this example, iDCs are obtained as follows: First, peripheral blood mononuclear cells (“PBMCs”) are obtained by density gradient centrifugation. One density gradient centrifugation medium is FICOLL PAQUE, commercially available from Amersham Biosciences. Monocytes are then isolated from the PBMCs by magnetic depletion of non-monocytes. Finally, iDCs are isolated from the monocytes by treatment of the monocytes with ILA and GM-GSF for 6 days.
(§3) In this example, resting cultures of isolated iDCs are then infected with a recombinant adenovirus containing the luciferase gene which is transcribed under the control of a specific cis-element. In this example, three recombinant adenovirus constructs are used to infect three separate cultures of iDCs, each construct containing one of three cis-elements: AP-1, NFκB, and ISRE. The iDCs are infected at a MOI of 100 per cell. After 16 hours of incubation post infection, the iDCs are then either mock stimulated (“C”) or stimulated with lipopolysaccharide (“LPS”) at the concentration of 1 μg/ml. At 2 hours, 4 hours, 8 hours, and 24 hours post stimulation, cells are harvested and luciferase activity is measured by luminometer. FIG. 6B contains three charts depicting the time course of AP-1, NFκB, and ISRE stimulation, respectively. […] These charts also indicate different time courses of activation.

NFκB cis-element = experiment: Adenovirus luciferase reporter in iDCs; details: LPS 1 μg/ml, 2, 4, 8, 24 hours time course
Experimental: as §1, §2, §3

AP-1 cis-element [1] = experiment: Adenovirus luciferase reporter in iDCs; details: LPS 1 μg/ml, 2, 4, 8, 24 hours time course
Experimental: as §1, §2, §3

CRE cis-element = experiment: Adenovirus luciferase reporter in CD14+ plate-bound macrophages; details: LPS 1 μg/ml, 24 hours post stimulation
Experimental: as §1
(§4) Similar experiments were performed for CD14^+ plate-bound macrophages. In this example, macrophages are obtained as follows: First, peripheral blood mononuclear cells (“PBMCs”) are obtained by density gradient centrifugation. One density gradient centrifugation medium is FICOLL PAQUE, commercially available from Amersham Biosciences. Monocytes are then isolated from the PBMCs by magnetic depletion of non-monocytes. Finally, macrophages are isolated from the monocytes by attachment of the monocytes to a tissue culture plate in the absence of fetal bovine serum (“FBS”).
(§5) In this example, resting cultures of isolated macrophages are then infected with a recombinant adenovirus containing the luciferase gene which is transcribed under the control of a specific cis-element. In this example, four recombinant adenovirus constructs are used to infect four separate cultures of macrophages, each construct containing one of four cis-elements: CRE, AP-1, NFκB, and ISRE. The macrophages are infected at a MOI of 100 per cell. […] At 24 hours post stimulation, cells are harvested and luciferase activity is measured by luminometer. […]

AP-1 cis-element [2] = experiment: as above; details: LPS 1 μg/ml, 24 hours post stimulation
Experimental: as §1, §4, §5

lipopolysaccharide [LPS]
stimulation of the ISRE cis-element (luciferase activity) (ISRE cis-element): significant stimulation | stimulation of the NFκB cis-element (luciferase activity) (NFκB cis-element): significant stimulation | stimulation of the AP-1 cis-element (luciferase activity) (AP-1 cis-element [1]): significant stimulation | activation of the CRE cis-element (luciferase activity) (CRE cis-element): significant stimulated activation | activation of the AP-1 cis-element (luciferase activity) (AP-1 cis-element [2]): significant stimulated activation
